Experimental data published in US20250049735A1, “MEDICINE FOR STEATOHEPATITIS” (The University of Tokyo, priority 2021, published 2025).

Test system: Atp8b1 E-KO mice
Description: All animal experiments were approved by and performed in accordance with the guidelines of the animal experiment committee of the University of Tokyo. To generate Atp8b1^flox/flox mice, ICR and C57BL/6J mice were purchased from Charles River Laboratories International, Inc. (Yokohama, Japan). Mice were kept under pathogen-free conditions at a room temperature of 23.5° C.±2.5° C. and a relative humidity of 52.5%+12.5% under a 14-hour light: 10-hour dark cycle. […] In order to supplement choline to pups, mother mice were fed with a 1.0% choline supplemented diet (D20011404, Research Diets) until weaning of their pups.
Male 3 to 4-week-old intestinal epithelial cell-specific Atp8b1 knockout (Atp8b1 E-KO) mice and control mice (littermate Flox/Flox mice) underwent laparotomy under isoflurane anesthesia. […] The blood was centrifuged at 1,700×g for 15 minutes, and plasma was separated. Thereafter, the plasma was flash-frozen in liquid nitrogen and was stored at −80° C. The liver was excised and was then flash-frozen in liquid nitrogen, and thereafter, the thus frozen liver was stored at −80° C., or was used for histological and electron microscopic analyses. The small intestine was excised, was then rinsed with cold PBS containing 0.5m M taurocholic acid, and was then used for histological and electron microscopic analyses, or for preparation of epithelial cells. To isolate epithelial cells from small intestine, TTDR kit (Becton Dickinson, Becton Drive Franklin Lakes, NJ) was used. According to the manufacturer's instructions included with the kit, the small intestine was opened longitudinally, was sliced into small fragments with a size of roughly 2 mm. The fragments were incubated with 1×TTDR diluted with DMEM (11995-065, gibco) at 37° C. for 30 minutes, and the resulting fragments were then mixed with 2 mM EDTA/PBS containing 1% BSA. The thus obtained mixture was filtrated through a 70 μm cell strainer (VWR21008-952; Corning Inc, Corning, NY), and was then centrifugated at 250×g at 4° C. for 10 minutes. The obtained cell pellets were incubated with 1×Pharm Lyse (Becton Dickinson, Becton Drive Franklin Lakes, NJ) at room temperature for 15 minutes for the lysis of red blood cells, and the resultant was then mixed with 2 mM EDTA/PBS containing 1% BSA. The thus obtained mixture was centrifuged at 250×g at 4° C. for 10 minutes. The prepared epithelial cells were flash frozen in liquid nitrogen, and were then stored at −80° C.
Metabolites were extracted from plasma, liver, and intestinal epithelial cells with methanol. After centrifugation at 20,000×g at 4° C. for 5 minutes, the supernatant was mixed with 400 mM ammonium sulfate at a ratio of 19:1. The mixture was centrifuged at 20,000×g at 4° C. for 5 minutes. The supernatant was applied to the LC/MS/MS system, which consisted of a UHPLC Nexera liquid chromatography system (Shimadzu co., Kyoto, Japan) and a 5500QTRAP mass spectrometer (AB Sciex pte. ltd., Toronto, Canada). The analytes were passed through a ZIC-CHILIC column (2.1×100 mm, 3 μm, Merck Millipore, Darmstadt, Germany) at a temperature of 30° C. with a gradient elution of the mobile phases, 10 mM ammonium formate aqueous solution and acetonitrile at a flow rate at 0.4 mL/min. The eluent was ionized using electrospray ionization and was scanned with an MRM mode (see Yuan et al., Nat. Protoc. 2012, 7 (5), 872-881. https://doi.org/10.1038/nprot.2012.024). Each MRM peak was assigned to a target molecule in comparison with its authentic standard.
The concentrations of choline, betaine, dimethylglycine (N,N-dimethylglycine) and glycerophosphorylcholine (sn-glycero-3-phosphocholine) in plasma were determined by liquid chromatography/tandem mass spectrometry (LC/MS/MS) assay. The sample was mixed with 98-fold volume of ethanol and 1-fold volume of the internal standard (IS) solution (10 μmol/L choline in water, 10 μmol/L glycerophosphorylcholine in water, and 1 μmol/L betaine in water).

[1] = liver of pups, mothers fed 1% choline supplemented diet vs normal diet (0.1% choline)
[2] = liver of pups, mothers fed 1% choline supplemented diet, compared with control mice
[3] = plasma and liver of Atp8b1 E-KO pups, mothers fed 1% choline supplemented diet, summary statement
[4] = plasma of pups, mothers fed 1% choline supplemented diet vs normal diet (0.1% choline)
[5] = plasma of pups, mothers fed 1% choline supplemented diet, compared with control mice
[6] = small intestinal epithelial cells of pups, mothers fed 1% choline supplemented diet vs normal diet (0.1% choline)

C[N+](C)(C)CCO [choline]
not changed: concentration of choline in liver [1] | concentration of glycerophosphorylcholine (GPC) in liver [1] | concentration of phosphorylcholine in liver [1] | concentration of choline in plasma [4] | concentration of glycerophosphorylcholine (GPC) in plasma [4] | concentration of phosphorylcholine in plasma [4] | concentration of betaine in small intestinal epithelial cells (small intestinal epithelial cells of pups, mothers fed 1% choline supplemented diet) | concentration of choline in small intestinal epithelial cells [6] | concentration of glycerophosphorylcholine (GPC) in small intestinal epithelial cells [6] | concentration of phosphorylcholine in small intestinal epithelial cells [6]
increased: amount of betaine in the pups [3] | amount of dimethylglycine in the pups [3] | amount of phosphatidylcholine (PC) in the pups [3]
no change: amount of choline in the pups (plasma and liver of Atp8b1 E-KO pups, mothers fed 1% choline supplemented diet vs normal diet, summary statement)
recovered: concentration of betaine in liver [2] | concentration of dimethylglycine in liver [2] | concentration of phosphatidylcholine (PC) in liver [2] | concentration of betaine in plasma [5] | concentration of dimethylglycine in plasma [5]
